Measurements published in ChEMBL document CHEMBL5705906 (Nat Commun, 2017).
The source made the active and inactive calls.

Assays:
BaF3 [1] = assay type: cell-based; conditions: Mus musculus, dose 10-1000 nM, time 6.0 hrs
PC-9 [2] = assay: Inhibition of EGFR T790M/del19 mutant in human PC-9 cells assessed as reduction in Akt phosphorylation at 10 to 1000 nM by Western blotting analysis; assay type: cell-based; conditions: dose 10-1000 nM
PC-9 [3] = assay type: functional, organism-based; conditions: Homo sapiens, dose 75.0 mg/kg, route po, time 15.0 day
BaF3 [4] = conditions: Mus musculus, dose 30-1000 nM, time 6.0 hrs
BaF3 [5] = conditions: Mus musculus, dose 30-1000 nM, time 6.0 hrs; remark: listed apart in the source
PC-9 [6] = conditions: Homo sapiens, dose 75.0 mg/kg, route po, time 60.0 day

COc1cc(N2CCC(N3CCN(C)CC3)CC2)ccc1Nc1ncc(Cl)c(Nc2ccccc2P(C)(C)=O)n1 [BRIGATINIB]
active: inhibition (BaF3 [1]) | inhibition (PC-9 [2]) | Activity (PC-9 [3]) | inhibition (BaF3 [4]) | inhibition (BaF3 [5]) | inhibition (PC-9 [6])
